Measurements reported in ChEMBL document CHEMBL2406981, “Novel pyrazoline amidoxime and their 1,2,4-oxadiazole analogues: synthesis and pharmacological screening” (Bioorg Med Chem Lett, 2013).
Values after ≈ are worked out from the molar mass of the structure shown.

Columns and labels:
Bacillus cereus [1] = assay: Antimicrobial activity against Bacillus cereus MTCC 8372; assay type: functional
Escherichia coli [2] = assay: Antimicrobial activity against Escherichia coli MTCC 724; assay type: functional
Staphylococcus aureus [3] = assay: Antimicrobial activity against Staphylococcus aureus MTCC 96 at 100 ug/ml after 24 hrs by agar disc diffusion method; assay type: functional; settings: MTCC 96, 24 h, read-out: DIZ
[4] = Antioxidant activity assessed as reducing power of ferric ion at 100 ug/ml after 20 mins; assay type: functional; set-up: scale not given: the % may be the effect or the level left
[5] = Antioxidant activity assessed as reducing power of ferric ion at 10 ug/ml after 20 mins; assay type: functional; set-up: scale not given: the % may be the effect or the level left
Shigella flexneri [6] = assay: Antimicrobial activity against Shigella flexneri MTCC 1457 at 50 ug/ml after 24 hrs by agar disc diffusion method; assay type: functional; settings: MTCC 1457, 24 h, read-out: DIZ
[7] = Ratio of vitamin-E to compound for ferric chloride-induced lipid peroxidation; assay type: physicochemical
Aspergillus flavus [8] = assay: Antimicrobial activity against Aspergillus flavus MTCC 873 at 100 ug/ml after 24 hrs by agar disc diffusion method; assay type: functional; settings: MTCC 873, 24 h, read-out: DIZ
Aspergillus flavus [9] = assay: Antimicrobial activity against Aspergillus flavus MTCC 873; assay type: functional
Escherichia coli [10] = assay: Antimicrobial activity against Escherichia coli MTCC 724 at 50 ug/ml after 24 hrs by agar disc diffusion method; assay type: functional; settings: MTCC 724, 24 h, read-out: DIZ
[11] = test system: Radical scavenging activity; assay: Antioxidant activity assessed as DPPH free radical scavenging activity at 10 ug/ml after 20 mins; assay type: functional
Klebsiella pneumoniae [12] = assay: Antimicrobial activity against Klebsiella pneumoniae MTCC 3384; assay type: functional
[13] = Antioxidant activity against ferric chloride-induced lipid peroxidation using egg lecithin at 100 ug/ml after 1 hr; assay type: functional
Staphylococcus aureus [14] = assay: Antimicrobial activity against Staphylococcus aureus MTCC 96; assay type: functional
Staphylococcus aureus [15] = assay: Antimicrobial activity against Staphylococcus aureus MTCC 96 at 50 ug/ml after 24 hrs by agar disc diffusion method; assay type: functional; settings: MTCC 96, 24 h, read-out: DIZ
[16] = test system: Radical scavenging activity; assay: Antioxidant activity assessed as DPPH free radical scavenging activity at 100 ug/ml after 20 mins; assay type: functional
Klebsiella pneumoniae [17] = assay: Antimicrobial activity against Klebsiella pneumoniae MTCC 3384 at 50 ug/ml after 24 hrs by agar disc diffusion method; assay type: functional; settings: MTCC 3384, 24 h, read-out: DIZ
Aspergillus niger [18] = assay: Antimicrobial activity against Aspergillus niger MTCC 281 at 50 ug/ml after 24 hrs by agar disc diffusion method; assay type: functional; settings: MTCC 281, 24 h, read-out: DIZ
Aspergillus niger [19] = assay: Antimicrobial activity against Aspergillus niger MTCC 281 at 100 ug/ml after 24 hrs by agar disc diffusion method; assay type: functional; settings: MTCC 281, 24 h, read-out: DIZ
Aspergillus flavus [20] = assay: Antimicrobial activity against Aspergillus flavus MTCC 873 at 50 ug/ml after 24 hrs by agar disc diffusion method; assay type: functional; settings: MTCC 873, 24 h, read-out: DIZ
Shigella flexneri [21] = assay: Antimicrobial activity against Shigella flexneri MTCC 1457; assay type: functional
[22] = test system: Radical scavenging activity; assay: Antioxidant activity assessed as DPPH free radical scavenging activity at 50 ug/ml after 20 mins; assay type: functional
[23] = Antioxidant activity against ferric chloride-induced lipid peroxidation using egg lecithin at 50 ug/ml after 1 hr; assay type: functional
[24] = Antioxidant activity against ferric chloride-induced lipid peroxidation using egg lecithin at 10 ug/ml after 1 hr; assay type: functional
Bacillus cereus [25] = assay: Antimicrobial activity against Bacillus cereus MTCC 8372 at 50 ug/ml after 24 hrs by agar disc diffusion method; assay type: functional; settings: MTCC 8372, 24 h, read-out: DIZ
Bacillus cereus [26] = assay: Antimicrobial activity against Bacillus cereus MTCC 8372 at 100 ug/ml after 24 hrs by agar disc diffusion method; assay type: functional; settings: MTCC 8372, 24 h, read-out: DIZ
Klebsiella pneumoniae [27] = assay: Antimicrobial activity against Klebsiella pneumoniae MTCC 3384 at 100 ug/ml after 24 hrs by agar disc diffusion method; assay type: functional; settings: MTCC 3384, 24 h, read-out: DIZ
Escherichia coli [28] = assay: Antimicrobial activity against Escherichia coli MTCC 724 at 100 ug/ml after 24 hrs by agar disc diffusion method; assay type: functional; settings: MTCC 724, 24 h, read-out: DIZ
Aspergillus niger [29] = assay: Antimicrobial activity against Aspergillus niger MTCC 281; assay type: functional
Shigella flexneri [30] = assay: Antimicrobial activity against Shigella flexneri MTCC 1457 at 100 ug/ml after 24 hrs by agar disc diffusion method; assay type: functional; settings: MTCC 1457, 24 h, read-out: DIZ
[31] = Antioxidant activity assessed as reducing power of ferric ion at 50 ug/ml after 20 mins; assay type: functional; set-up: scale not given: the % may be the effect or the level left
[32] = Antiinflammatory activity against heat-induced albumin denaturation at […] preincubated for 15 mins before heat induction by UV-vis spectrophotometer analysis; assay type: functional

MIC (Bacillus cereus [1]): 40 µg/mL (≈ 135 µM)
MIC (Escherichia coli [2]): 15 µg/mL (≈ 50.6 µM)
Ratio [7]: 3
MIC (Aspergillus flavus [9]): 35 µg/mL (≈ 118 µM)
MIC (Klebsiella pneumoniae [12]): 20 µg/mL (≈ 67.5 µM)
MIC (Staphylococcus aureus [14]): 50 µg/mL (≈ 169 µM)
MIC (Shigella flexneri [21]): 10 µg/mL (≈ 33.7 µM)
MIC (Aspergillus niger [29]): 15 µg/mL (≈ 50.6 µM)
SMILES: N/C(=N\O)C1CC(c2ccc(O)cc2)=NN1c1ccccc1 (configuration not stated)
zone of inhibition at 100 µg/mL (Staphylococcus aureus [3]): 8 mm
Activity [4]: 79%
Activity [5]: 12%
zone of inhibition at 50 µg/mL (Shigella flexneri [6]): 12 mm
zone of inhibition at 100 µg/mL (Aspergillus flavus [8]): 12 mm
zone of inhibition at 50 µg/mL (Escherichia coli [10]): 10 mm
Activity [11]: 24%
inhibition [13]: 20%
zone of inhibition at 50 µg/mL (Staphylococcus aureus [15]): 2 mm
Activity [16]: 76%
zone of inhibition at 50 µg/mL (Klebsiella pneumoniae [17]): 8 mm
zone of inhibition at 50 µg/mL (Aspergillus niger [18]): 10 mm
zone of inhibition at 100 µg/mL (Aspergillus niger [19]): 14 mm
zone of inhibition at 50 µg/mL (Aspergillus flavus [20]): 5 mm
Activity [22]: 41%
inhibition [23]: 18%
inhibition [24]: 12%
zone of inhibition at 50 µg/mL (Bacillus cereus [25]): 3 mm
zone of inhibition at 100 µg/mL (Bacillus cereus [26]): 3 mm
zone of inhibition at 100 µg/mL (Klebsiella pneumoniae [27]): 12 mm
zone of inhibition at 100 µg/mL (Escherichia coli [28]): 16 mm
zone of inhibition at 100 µg/mL (Shigella flexneri [30]): 20 mm
Activity [31]: 34%
inhibition [32]: 63.5%
